Source: PMC6395926, “Mass Balance and Drug Interaction Potential of Intravenous Eravacycline Administered to Healthy Subjects” (Antimicrobial Agents and Chemotherapy, 2019)
“Also recorded” adds a separate entry of the source. Like-named read-outs stand apart in the source and are kept apart here.

Columns and labels:
[1] = Mass balance study: plasma PK of eravacycline, TP-498 and TP-6208 (LC-MS); format: in vivo, human; conditions: in vivo, iv
Source text: (ii) Study design. This was a single-center, open-label study of a single i.v. dose of [^14C]eravacycline to assess the mass balance recovery and PK of eravacycline. The primary objectives were to determine mass balance recovery, determine routes and rates of excretion, provide metabolite profiling and structural identification, and assess the PK of radioactivity in plasma and whole blood. Subjects were screened for inclusion in the study, including a detailed medical history, physical examination, and laboratory evaluations, in the 28 days before dosing. Eligible subjects were admitted to the clinical study unit at approximately 21:00 on the evening prior to study drug administration (day −1) and remained on site until 240 h postdose for collection of urine, feces, and blood samples. After an overnight fast, each subject received 60 mg [^14C]eravacycline containing not more than 3.8 MBq (105 μCi) ^14C as a single i.v. infusion over 60 min.
(vi) Study assessments. PK parameters were determined for total radioactivity in plasma and whole blood. Eravacycline, TP-498, and TP-6208 concentrations in plasma were quantified using a validated assay with internal standards. The following PK parameters were determined: Cmax, Tmax, time from dosing before the first quantifiable concentration in a concentration versus time profile (Tlag), AUC0–t, AUC0–24, AUC0–∞, the percentage of AUC0–∞ extrapolated beyond the time of the last measurable concentration (AUC%extrap), the slope of the apparent terminal phase (lambda-z), the apparent terminal half-life (t1/2), the mean residence time estimated between time zero and infinity (MRT0-∞), the apparent volume of plasma cleared of analyte per unit time (CL), and the volume of distribution of analyte at steady state (Vss).
Plasma concentrations of eravacycline, TP-498, and TP-6208 were measured by liquid chromatography with tandem mass spectrometry (LC-MS). The LLOQ was 5 ng/ml for eravacycline, TP-498, and TP-6208. The calibration ranges for eravacycline, TP-498, and TP-6208 in human urine were 50 to 10,000 ng/ml, 50 to 1,000 ng/ml, and 20 to 1,000 ng/ml, respectively. The calibration ranges for eravacycline, TP-498, and TP-6208 in human plasma were 5 to 500 ng/ml.
(viii) Study analysis. Descriptive statistics (mean, median, standard deviation [SD], percent coefficient of variation [%CV], minimum, maximum, number, geometric mean, and geometric %CV) were calculated for all concentration data. Pharmacokinetic parameters were calculated using Phoenix WinNonlin v6.3 (Certera USA, Inc.).

[2] = in vitro; previous studies, no reference given; cited from earlier work
[3] = design: species or system human; conditions: human, in vivo
Procedure: (§1) (iii) Study assessments. Blood samples for PK analysis of eravacycline and its metabolites, TP-498, TP-6208, and TP-034, were collected predose and 1, 2, 4, 6, 8, 12, 24, 36, and 48 h after the start of the i.v. infusion on day 1 and day 10 (itraconazole) or day 1 and day 17 (rifampin). Safety assessments included AEs, clinical laboratory safety tests (hematology, serum chemistry, electrolytes, coagulation, urinalysis, and lipid profile), vital signs, physical examinations, and 12-lead ECG.

[4] = Itraconazole drug interaction study: safety/tolerability; format: in vivo, human; conditions: itraconazole treatment period, 3 of 11 subjects
Procedure: as §1

[5] = Drug interaction study with rifampin (CYP3A4 inducer): plasma PK of i.v. eravacycline and metabolites; format: in vivo, human; conditions: in vivo
Procedure: Two single-center, open-label studies were conducted to evaluate the effects of itraconazole (CYP3A4 inhibitor) and rifampin (CYP3A4 inducer) on the pharmacokinetics of i.v. eravacycline in healthy subjects.
(ii) Study design. Each study included a 28-day screening period, a 13-day treatment period (19 days for rifampin), and an end-of-study visit 2 weeks after the last dose of study drug. […] For the itraconazole study, 200 mg oral itraconazole was administered q12h on day 8 and q24h on days 9 and 10. For the rifampin study, 600 mg oral rifampin was administered q24h from day 8 to day 17. All study treatments were administered in the fasting state.
as §1
Concentrations of eravacycline, TP-498, and TP-6208 in human plasma samples were measured by LC-tandem MS after solid-phase extraction over a calibration range of 5.00 to 500 ng/ml. The LLOQ for eravacycline, TP-498, TP-6208, and TP-034 in human plasma was 5.00 ng/ml. Samples with eravacycline initial concentrations above the upper limit of quantification (500 ng/ml) were diluted appropriately with control blank human plasma and reanalyzed. There was no interference seen when human plasma was fortified with eravacycline, TP-498, TP-6208, and either itraconazole or rifampin.
(iv) Pharmacokinetic analysis. PK assessments included Cmax, Tmax, AUC0–24, AUC0–t, t1/2, CL, and Vss. Actual sampling time was used for PK calculations. PK parameters were derived by noncompartmental analysis. Descriptive statistics were calculated for analyte concentrations at each evaluation time point and for all quantitative PK parameters of eravacycline, TP-498, TP-6208, and TP-034 for day 1 and day 10 (day 17 for rifampin). The effect of itraconazole or rifampin on the PK profile of i.v. eravacycline was evaluated by comparing log-transformed PK parameters (Cmax and AUC0–t) associated with the administration of study drug on day 1 and day 10 (itraconazole) or day 1 and day 17 (rifampin) using paired t tests. The ratio and 90% confidence interval (CI) were presented after back transformation to the original scale. Pharmacokinetic variables were calculated using WinNonlin Professional.

For `CN(C)[C@@H]1C(=O)C(C(N)=O)=C(O)[C@@]2(O)C(=O)C3=C(O)c4c(O)c(N5C(=O)CN6CCCC65)cc(F)c4C[C@H]3C[C@@H]12` (some centres unmarked) [TP-6208], the “AUC0–∞” value ([1]; human) was 1780 ± 26.9 (n = 2) h·ng/ml, the Cmax ([1]; human) was 42.8 ± 28.9 ng/mL and the “geometric mean AUC0–t, fold lower than that of eravacycline” value ([1]; human) was 2.9 fold. The “geometric mean AUC0–∞, fold lower than that of eravacycline” value ([1]; human) was 2.5 fold, the “geometric mean Cmax, fold lower than that of eravacycline” value ([1]; human) was 25.7 fold and the t1/2 ([1]; human) was 18.8 ± 17.8 (n = 2) h. The “time postdose plasma concentrations were quantifiable” value [1] was 49 to 73 h and the antimicrobial activity [2] was “no in vitro antimicrobial activity; also recorded: None exhibit antimicrobial activity”.

For `CO[C@H]1/C=C/O[C@@]2(C)Oc3c(C)c(O)c4c(O)c(c(/C=N/N5CCN(C)CC5)c(O)c4c3C2=O)NC(=O)/C(C)=C\C=C\[C@H](C)[C@H](O)[C@@H](C)[C@@H](O)[C@@H](C)[C@H](OC(C)=O)[C@@H]1C` [rifampin, reference compound], the “subjects who experienced an AE” value [3] was 8.3%.

In the case of `CCC(C)n1ncn(-c2ccc(N3CCN(c4ccc(OCC5COC(Cn6cncn6)(c6ccc(Cl)cc6Cl)O5)cc4)CC3)cc2)c1=O` (centres unmarked) [itraconazole, reference compound], the “subjects who experienced an AE” value [4] is reported as 27.3%.

With `CN(C)[C@H]1C(O)=C(C(N)=O)C(=O)[C@@]2(O)C(O)=C3C(=O)c4c(O)c(NC(=O)CN5CCCC5)cc(F)c4C[C@H]3C[C@@H]12` [TP-498] the CLR ([1]; human) was 85.7 ± 35.5 mL/min, the Cmax ([1]; human) was 20.4 ± 18.9 ng/mL and the “geometric mean AUC0–t, fold lower than that of eravacycline” value ([1]; human) was 13.5 fold. The “geometric mean Cmax, fold lower than that of eravacycline” value ([1]; human) was 53.9 fold, the “time postdose plasma concentrations were quantifiable” value [1] was 37 to 49 h and the “Mean Cmax and AUC0–24 when eravacycline was dosed with or without rifampin” value [5] was “similar”. For the same compound, the antimicrobial activity [2] was “no in vitro antimicrobial activity; also recorded: None exhibit antimicrobial activity”.
